These results are taken from patent US10188756B2, “Imaging histone deacetylases with a radiotracer using positron emission tomography” (THE GENERAL HOSPITAL CORPORATION, priority 2013, dated 2019).

Entries after “also recorded” stand apart in the source; their conditions may differ.

For one series, the target named is HDAC3 (Homo sapiens (Human), UniProt O15379). Kind of series: HDAC inhibition assay. As to conditions: read-out: IC50 HDAC3.
For series [1], the system named is histone deacetylases. Kind of series: Rodent PET/CT imaging with [11C]CN133. It counts as in vivo, rats (Sprague Dawley). The settings on record: for [11C]CN133 uptake in peripheral organs/regions of rats after treatment: peripheral organs (heart wall, kidney cortex, spleen); for blocking of [11C]CN133 uptake in rat brain after pretreatment: whole brain, 5-minute pretreatment. As to the method:
Male Sprague-Dawley rats were utilized in pairs, anesthetized with inhalational isoflurane (Forane) at 3% in a carrier of 2 L/min medical oxygen and maintained at 2% isoflurane for the duration of the scan. The rats were arranged head-to-head in a Triumph Trimodality PET/CT/SPECT scanner (Gamma Medica, Northridge, Calif., USA). Rats were injected standard references or vehicle via a lateral tail vein catheterization at the start of PET acquisition. Dynamic PET acquisition lasted for 60 minutes and was followed by computed tomography (CT) for anatomic coregistration. PET data were reconstructed using a 3D-MLEM method resulting in a full width at half-maximum resolution of 1 mm. Reconstructed images were exported from the scanner in DICOM format along with an anatomic CT for rodent studies. These files were imported to PMOD (PMOD Technologies, Ltd.) and manually coregistered using six degrees of freedom.
Volumes of interest (VOIs) were drawn manually as spheres in brain regions guided by high resolution CT structural images and summed PET data, with a radius no less than 1 mm to minimize partial volume effects. Time-activity curves (TACs) were exported in terms of decay corrected activity per unit volume at specified time points with gradually increasing intervals. The TACs were expressed as percent injected dose per unit volume for analysis.

Another series has as its target HDAC2 (Homo sapiens (Human), UniProt Q92769). Kind of series: HDAC inhibition assay. It counts as biochemical. An excerpt:
(§1) All histone deacetylases were purchased from BPS Bioscience. […] All the other reagents were purchased from Sigma-Aldrich.

Another series concerns the target HDAC1 (Homo sapiens (Human), UniProt Q13547). Kind of series: HDAC inhibition assay. As to conditions: read-out: IC50 HDAC1.
The next series has as its target HDAC7 (Homo sapiens (Human), UniProt Q8WUI4). The series is described as follows: HDAC inhibition assay. As to conditions: read-out: IC50 HDAC7.
The target of the next series is HDAC4 (Homo sapiens (Human), UniProt P56524). Kind of series: HDAC inhibition assay. The settings on record: read-out: IC50 HDAC4.
The target of the next series is HDAC5 (Homo sapiens (Human), UniProt Q9UQL6). The series is described as follows: HDAC inhibition assay. As to conditions: read-out: IC50 HDAC5.
Chain of HDAC5 (Q9UQL6 whole entry): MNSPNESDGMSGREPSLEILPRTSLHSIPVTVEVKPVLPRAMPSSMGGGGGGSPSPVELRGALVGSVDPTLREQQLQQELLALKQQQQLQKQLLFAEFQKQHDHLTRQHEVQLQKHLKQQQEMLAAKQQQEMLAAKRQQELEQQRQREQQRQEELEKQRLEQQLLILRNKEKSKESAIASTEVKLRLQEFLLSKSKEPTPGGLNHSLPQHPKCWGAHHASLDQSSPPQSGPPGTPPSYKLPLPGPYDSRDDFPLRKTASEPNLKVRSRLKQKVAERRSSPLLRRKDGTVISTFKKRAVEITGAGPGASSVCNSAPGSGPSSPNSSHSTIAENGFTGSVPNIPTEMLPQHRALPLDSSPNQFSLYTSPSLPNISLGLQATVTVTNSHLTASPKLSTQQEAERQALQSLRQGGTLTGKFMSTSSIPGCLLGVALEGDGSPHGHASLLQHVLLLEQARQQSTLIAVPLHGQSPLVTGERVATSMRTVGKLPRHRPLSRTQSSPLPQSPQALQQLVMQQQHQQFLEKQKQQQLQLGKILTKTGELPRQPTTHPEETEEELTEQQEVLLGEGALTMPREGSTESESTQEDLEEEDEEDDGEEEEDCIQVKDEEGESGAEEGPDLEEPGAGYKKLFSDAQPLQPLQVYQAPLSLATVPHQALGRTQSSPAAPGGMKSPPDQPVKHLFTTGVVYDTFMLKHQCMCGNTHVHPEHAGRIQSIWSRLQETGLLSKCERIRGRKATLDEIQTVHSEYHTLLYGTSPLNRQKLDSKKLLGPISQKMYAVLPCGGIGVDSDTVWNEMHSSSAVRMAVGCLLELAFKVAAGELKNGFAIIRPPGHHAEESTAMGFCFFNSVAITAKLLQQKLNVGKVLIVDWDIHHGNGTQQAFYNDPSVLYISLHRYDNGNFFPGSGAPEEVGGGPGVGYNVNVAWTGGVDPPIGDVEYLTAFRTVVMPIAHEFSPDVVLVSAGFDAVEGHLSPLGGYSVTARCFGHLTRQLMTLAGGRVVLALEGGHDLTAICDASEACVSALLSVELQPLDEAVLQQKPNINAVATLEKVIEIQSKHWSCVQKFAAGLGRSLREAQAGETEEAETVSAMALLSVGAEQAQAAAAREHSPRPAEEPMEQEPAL
The target in a further series is HDAC9 (Homo sapiens (Human), UniProt Q9UKV0). Kind of series: HDAC inhibition assay. The settings on record: read-out: IC50 HDAC9.
Chain of HDAC9 (Q9UKV0 whole entry): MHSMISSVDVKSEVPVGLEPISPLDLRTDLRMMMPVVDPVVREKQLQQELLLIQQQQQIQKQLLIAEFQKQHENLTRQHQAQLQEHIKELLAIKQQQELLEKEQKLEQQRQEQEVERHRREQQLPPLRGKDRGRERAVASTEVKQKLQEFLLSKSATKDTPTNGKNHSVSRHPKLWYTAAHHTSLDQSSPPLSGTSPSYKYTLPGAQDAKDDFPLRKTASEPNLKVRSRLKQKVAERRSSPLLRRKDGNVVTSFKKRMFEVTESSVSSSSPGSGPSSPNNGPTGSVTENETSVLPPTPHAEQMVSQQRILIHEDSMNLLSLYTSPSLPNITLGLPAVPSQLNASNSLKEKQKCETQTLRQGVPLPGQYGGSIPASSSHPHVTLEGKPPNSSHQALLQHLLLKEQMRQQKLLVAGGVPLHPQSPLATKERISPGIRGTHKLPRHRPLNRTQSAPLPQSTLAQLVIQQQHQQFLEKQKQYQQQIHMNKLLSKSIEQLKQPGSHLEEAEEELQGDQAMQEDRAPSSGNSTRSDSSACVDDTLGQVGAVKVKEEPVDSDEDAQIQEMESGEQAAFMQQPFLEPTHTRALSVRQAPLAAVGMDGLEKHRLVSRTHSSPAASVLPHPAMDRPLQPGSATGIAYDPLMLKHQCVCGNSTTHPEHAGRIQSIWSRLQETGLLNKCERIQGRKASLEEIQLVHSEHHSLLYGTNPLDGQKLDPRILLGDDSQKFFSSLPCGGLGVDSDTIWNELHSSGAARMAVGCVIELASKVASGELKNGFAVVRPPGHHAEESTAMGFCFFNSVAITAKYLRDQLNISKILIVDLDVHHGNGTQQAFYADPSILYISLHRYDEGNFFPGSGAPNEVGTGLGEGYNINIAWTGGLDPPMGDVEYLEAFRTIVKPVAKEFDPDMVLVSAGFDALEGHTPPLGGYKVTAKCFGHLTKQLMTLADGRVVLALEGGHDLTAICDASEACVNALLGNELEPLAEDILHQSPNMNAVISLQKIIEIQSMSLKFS
The next series addresses HDAC6 (Homo sapiens (Human), UniProt Q9UBN7). Kind of series: HDAC inhibition assay. Type of series: biochemical.
Description: as §1

For the next series, the target named is HDAC8 (Homo sapiens (Human), UniProt Q9BY41). Kind of series: HDAC inhibition assay. Type of series: biochemical.
Chain of HDAC8 (Q9BY41 whole entry): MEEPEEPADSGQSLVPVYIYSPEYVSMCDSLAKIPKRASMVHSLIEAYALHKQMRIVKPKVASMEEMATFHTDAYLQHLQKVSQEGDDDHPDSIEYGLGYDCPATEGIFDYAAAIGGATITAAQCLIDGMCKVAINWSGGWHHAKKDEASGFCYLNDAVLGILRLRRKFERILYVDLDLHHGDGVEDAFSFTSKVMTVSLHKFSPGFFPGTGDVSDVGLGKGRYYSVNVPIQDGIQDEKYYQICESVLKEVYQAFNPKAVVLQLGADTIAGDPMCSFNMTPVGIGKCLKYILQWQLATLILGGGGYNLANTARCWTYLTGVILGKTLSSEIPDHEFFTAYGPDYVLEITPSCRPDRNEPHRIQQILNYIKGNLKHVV
Description: as §1

The subject of series [2] is histone deacetylases. Kind of series: Baboon PET/MR imaging with [11C]CN133. It counts as in vivo, baboon (Papio anubis). The settings on record: for VT (Ichese MAI), Baseline / VT (Logan Plot), Baseline: [11C]CN133 distribution volume, t*=35 min to 80 min. How it is done:
A female Papio Anubis baboon, deprived of food for 12 hours prior to the study, was administered intramuscular ketamine (10 mg/kg) and intubated. For maintenance of anesthesia throughout the study, the baboon was provided 1%-4% isoflurane (Forane) in a mixture of medical oxygen and nitrogen. The baboon was catheterized antecubitally for radiotracer injection and a radial arterial line was placed for metabolite analysis. MR-PET images were acquired in a BiographmMR scanner (Siemens, Munich, Germany), and PET compatible 8-channel coil arrays for non-human primate brain imaging with a PET resolution of 5 mm and field of view of 59.4 cm and 25.8 cm (transaxial and axial, respectively). Dynamic PET image acquisition was initiated followed by administration of the radiotracer in a homogenous solution of 10% ethanol and 90% isotonic saline. An […] sequence began after 30 minutes of the baseline scan for anatomic coregistration. […] Both scans were carried out in the same animal on the same day, separated by 2.5 hours. In both scans, 4-5 mCi of [^11C]CN133 was administered to the baboon. Dynamic data from the PET scans were recorded in list mode and corrected for attenuation. Baboon data were reconstructed using a 3D-OSEM method resulting in a full width at half-maximum resolution of 4 mm.
Volumes of interest (VOIs) were drawn manually as spheres in brain regions guided by high resolution MR structural images and summed PET data, with a radius no less than 4 mm. A common VOI mask was applied to both baboon scans. Time-activity curves (TACs) were exported in terms of decay corrected activity per unit volume at specified time points with gradually increasing intervals. The TACs were expressed as percent injected dose per unit volume for analysis.
Arterial samples collected during imaging from the baboon were centrifuged to obtain plasma, which was then removed and placed in an automated gamma counter that was calibrated to the PET scanner. Metabolite analysis was conducted on a custom automated robot fitted with Phenomenex SPE Strata-X 500 mg solid phase extraction cartridges that were primed with ethanol (2 mL) and deionized water (20 mL). Protein precipitation was achieved by addition of plasma (300 μL) to acetonitrile (300 μL), which was centrifuged for 1 minute to obtain protein-free plasma (PFP). 300 μL of PFP/acetonitrile solution was diluted into deionized water (3 mL), loaded onto the C18 cartridge, and removed of polar metabolites with 100% water. Next, a series of extractions were performed using water and acetonitrile in quantities: 95:5, 90:10, 85:15, 80:20, 70:30, 60:40, 30:70 and 100% acetonitrile at a volume of 4 mL. A control experiment was performed before metabolite analysis to determine the retention of the parent compound by injection of a small amount of [^11C]CN133 onto a test series of extraction cartridges. Each sample was counted in a WIZARD2 Automatic Gamma Counter to determine the presence of radiolabeled metabolites.
CN147 blocks ˜40% of [^11C]CN133 binding in NHP whole brain and in cerebellum. Plasma-normalized data were evaluated by volume of interest analysis (VOI) at the whole brain level and at level of the cerebellum. VOI data were then applied to distribution volume (VT) data analysis by two graphical methods using PMOD software, tabulated in Tables A and B below. Logan Plot and Ichese MAI methods were clarified from previous NHP imaging analyses to provide an accurate VT estimate (+/− standard error) from data beginning 35 min after injection of radiotracer (t*=35 min) until the end of the scan (t=80min).

Series [3] is described as follows: Plasma protein binding assay, human plasma. Type of series: in vitro ADME. As to conditions: method derives % unbound, read-out: plasma protein binding (PPB) (converted).
Series [4] can be described thus: Plasma protein binding assay, baboon plasma. Type of series: in vitro ADME. As to conditions: method derives % unbound, read-out: plasma protein binding (PPB) (converted). As to the method: An aliquot of radiotracer in saline (10 μL) was added to a sample of baboon plasma (0.8 mL, pooled from two separate animals). The mixture was gently mixed by repeated inversion and incubated for 10 minutes at room temperature. Following incubation a small sample (20 μL) was removed to determine the total radioactivity in the plasma sample (AT; AT=Abound+Aunbound). An additional 0.2 mL of the plasma sample was placed in the upper compartment of a Centrifree tube (Amicon, Inc., Beverly, Mass., USA) and then centrifuged for 10 minutes. The upper part of the Centrifree tube was discarded, and an aliquot (20 μL) from the bottom part of the tube was removed to determine the amount of radioactivity that passed through the membrane (Aunbound). Plasma protein binding was derived by the following equation: % unbound=Aunbound×100/AT.

The target in another series is HDAC1 through HDAC9. The series is described as follows: HDAC inhibition assay, isoform panel. As to conditions: HDAC1, HDAC2, HDAC3 and HDAC6. Type of series: biochemical.
Description: as §1

The next series can be described thus: Log D determination. The settings on record: octanol / phosphate buffer pH 7.4; read-out: partition coefficient (Log D). It counts as physicochemical. How it is done:
An aliquot (˜50 μL) of the formulated radiotracer was added to a test tube containing 2.5 mL of octanol and 2.5 mL of phosphate buffer solution (pH 7.4). The test tube was mixed by vortex for 2 minutes and then centrifuged for 2 minutes to fully separate the aqueous and organic phase. A sample taken from the octanol layer (0.1 mL) and the aqueous layer (1.0 mL) was saved for radioactivity measurement. An additional aliquot of the octanol layer (2.0 mL) was carefully transferred to a new test tube containing 0.5 mL of octanol and 2.5 mL of phosphate buffer solution (pH 7.4). The previous procedure (vortex mixing, centrifugation, sampling, and transfer to the next test tube) was repeated until six sets of aliquot samples had been prepared. The radioactivity of each sample was measured in a well counter (Perkin-Elmer, Waltham, Mass.). The log D of each set of samples was derived by the following equation: log D=log (decay-corrected radioactivity in octanol sample×10/decay-corrected radioactivity in phosphate buffer sample).

Chain of HDAC3 (O15379 whole entry): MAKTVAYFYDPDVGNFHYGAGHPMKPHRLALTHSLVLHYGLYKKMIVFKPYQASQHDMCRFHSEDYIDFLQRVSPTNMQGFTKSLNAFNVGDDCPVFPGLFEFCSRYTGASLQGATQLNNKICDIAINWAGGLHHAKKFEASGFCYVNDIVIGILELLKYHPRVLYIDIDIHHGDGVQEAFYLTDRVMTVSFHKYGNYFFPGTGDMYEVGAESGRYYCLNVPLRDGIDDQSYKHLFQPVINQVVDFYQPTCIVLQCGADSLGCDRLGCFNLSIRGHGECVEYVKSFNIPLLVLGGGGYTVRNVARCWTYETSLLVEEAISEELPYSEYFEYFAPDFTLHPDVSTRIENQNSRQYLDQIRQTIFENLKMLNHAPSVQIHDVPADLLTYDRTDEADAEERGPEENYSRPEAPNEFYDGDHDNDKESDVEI
Chain of HDAC3 (Q9Y618 395-489 partner): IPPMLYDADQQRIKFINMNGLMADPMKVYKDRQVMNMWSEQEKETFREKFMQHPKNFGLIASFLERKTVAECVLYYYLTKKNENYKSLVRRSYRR
Chain of HDAC6 (Q9UBN7 whole entry): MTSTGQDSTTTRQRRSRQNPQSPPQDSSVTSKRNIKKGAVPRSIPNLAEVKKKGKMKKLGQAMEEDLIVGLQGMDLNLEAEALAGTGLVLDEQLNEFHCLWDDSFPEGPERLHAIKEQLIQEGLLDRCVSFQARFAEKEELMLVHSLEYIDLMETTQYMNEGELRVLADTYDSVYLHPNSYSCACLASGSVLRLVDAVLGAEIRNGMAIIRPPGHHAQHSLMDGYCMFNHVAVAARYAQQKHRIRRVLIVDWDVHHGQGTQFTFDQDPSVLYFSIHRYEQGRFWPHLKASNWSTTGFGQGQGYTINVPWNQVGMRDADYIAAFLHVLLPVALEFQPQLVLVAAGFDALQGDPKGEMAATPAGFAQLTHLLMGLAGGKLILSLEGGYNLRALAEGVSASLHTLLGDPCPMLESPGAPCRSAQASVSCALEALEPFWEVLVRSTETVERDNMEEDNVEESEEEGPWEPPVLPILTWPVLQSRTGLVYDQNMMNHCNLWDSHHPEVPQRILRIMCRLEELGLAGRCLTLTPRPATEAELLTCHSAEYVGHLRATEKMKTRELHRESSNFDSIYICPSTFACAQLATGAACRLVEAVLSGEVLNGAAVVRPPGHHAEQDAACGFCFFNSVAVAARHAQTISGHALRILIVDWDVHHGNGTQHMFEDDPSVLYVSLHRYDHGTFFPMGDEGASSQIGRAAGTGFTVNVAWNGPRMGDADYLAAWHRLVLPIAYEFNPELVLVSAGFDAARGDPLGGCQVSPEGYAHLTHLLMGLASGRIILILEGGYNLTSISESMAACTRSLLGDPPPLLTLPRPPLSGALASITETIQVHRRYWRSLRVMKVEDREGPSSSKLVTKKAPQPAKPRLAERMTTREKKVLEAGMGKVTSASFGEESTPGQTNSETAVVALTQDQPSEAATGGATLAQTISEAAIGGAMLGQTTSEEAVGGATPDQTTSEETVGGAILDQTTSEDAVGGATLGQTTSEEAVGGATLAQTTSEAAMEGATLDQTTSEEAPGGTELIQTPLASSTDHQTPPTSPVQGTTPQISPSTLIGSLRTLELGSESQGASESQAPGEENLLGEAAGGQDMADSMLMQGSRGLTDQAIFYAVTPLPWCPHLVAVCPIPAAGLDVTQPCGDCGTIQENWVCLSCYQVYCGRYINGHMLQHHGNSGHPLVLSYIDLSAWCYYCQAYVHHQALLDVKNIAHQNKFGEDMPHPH
Chain of HDAC2 (Q92769 whole entry): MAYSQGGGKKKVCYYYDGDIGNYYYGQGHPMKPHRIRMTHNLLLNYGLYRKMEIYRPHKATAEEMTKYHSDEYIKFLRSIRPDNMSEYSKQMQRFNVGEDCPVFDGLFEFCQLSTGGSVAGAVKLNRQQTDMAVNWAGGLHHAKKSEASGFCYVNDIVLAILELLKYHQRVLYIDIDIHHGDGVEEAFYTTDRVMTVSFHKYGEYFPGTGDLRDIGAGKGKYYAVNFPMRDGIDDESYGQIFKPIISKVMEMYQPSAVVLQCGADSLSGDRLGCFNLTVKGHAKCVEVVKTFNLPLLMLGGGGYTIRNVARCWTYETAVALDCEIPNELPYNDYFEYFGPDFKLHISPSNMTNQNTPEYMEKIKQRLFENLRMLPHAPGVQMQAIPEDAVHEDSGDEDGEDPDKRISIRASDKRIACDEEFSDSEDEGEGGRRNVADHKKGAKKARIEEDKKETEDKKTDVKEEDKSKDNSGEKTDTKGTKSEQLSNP
Description for HDAC3: (§2) All histone deacetylases were purchased from BPS Bioscience. […] All the other reagents were purchased from Sigma-Aldrich. Caliper EZ reader II system was used to collect all data. […] Purified HDACs were incubated with 2 μM carboxyfluorescein (FAM)-labeled acetylated or trifluoroacetylated peptide substrate (Broad Substrate A and B respectively) and test compound for 60 minutes at room temperature, in HDAC assay buffer that contained 50 mM HEPES (pH 7.4), 100 mM KCl, 0.01% BSA and 0.001% Tween-20. […] Substrate and product were separated electrophoretically and fluorescence intensity in the substrate and product peaks was determined and analyzed by Labchip EZ Reader. The reactions were performed in duplicate for each sample. IC50 values were automatically calculated by Origin 8 using 4 Parameter Logistic Model. The percent inhibition was plotted against the compound concentration, and the IC50 value was determined from the logistic dose-response curve fitting by Origin 8.0 software.
Description for HDAC4: as §2
Description for HDAC5: as §2
Description for HDAC7: as §2

For `O=C(NO)c1ccc(C2=Nc3ccccc3Oc3ccccc32)cc1` [CN54], the IC50 (commonly the concentration that gives 50% inhibition) at HDAC3 turned out to be 0.0071 µM; on HDAC2, 0.0537 µM; on HDAC1, 0.0561 µM. Further, the “[11C]CN133 uptake in peripheral organs/regions of rats after treatment” value in the series with histone deacetylases [1] is reported as “decreased uptake”. Further, the “blocking of [11C]CN133 uptake in rat brain after pretreatment” value (shortened to “blocking … after pretreatment”) with histone deacetylases [1] was “blocked; also recorded: activity blocking”.

As for `O=C(/C=C/c1ccc(CNCC23CC4CC(CC(C4)C2)C3)c(F)c1)NO` [CN148], the IC50 on HDAC7 was over 50 µM; at HDAC4, over 70 µM; on HDAC5 it was 4.31 µM; at HDAC9, over 50 µM; at HDAC3 it was 0.0005 µM; against HDAC2, 0.0064 µM. Further, the IC50 at HDAC6 stood at 0.0095 µM; at HDAC8, 4.9 µM; on HDAC1, 0.00078 µM.

Regarding `O=C(/C=C/c1ccccc1)NO` [CN86], the IC50 on HDAC7 was over 20 µM; on HDAC4 it was over 10 µM; at HDAC5, over 10 µM; at HDAC9, over 50 µM; on HDAC3, 0.151 µM; against HDAC2 it was 0.47 µM. The IC50 at HDAC6 came out at 0.0217 µM; on HDAC8 it was 0.725 µM; on HDAC1 it was 0.133 µM.

As for `Cn1cc(CCNCc2ccc(/C=C/C(=O)NO)cc2)c2ccccc21` [CN107], the IC50 stood at 2.04 µM on HDAC7; 0.655 µM at HDAC4; 0.099 µM at HDAC5; 4.85 µM on HDAC9; 0.0004 µM at HDAC3; 0.0012 µM on HDAC2. Further, the values for the IC50 on HDAC6, on HDAC8 and at HDAC1 were 0.0016 µM, 1.04 µM and 0.0002 µM, respectively.

With `O=C(CCCCCCC(=O)Nc1ccccc1)NO` [SAHA, suberanilohydroxamic acid, reference compound], in the series with histone deacetylases [1], the “[11C]CN133 uptake in peripheral organs/regions of rats after treatment” value is on record as “decreased uptake” and the “blocking … after pretreatment” value was “no significant change; also recorded: did not block the brain uptake”. For the same molecule, the “blocking of [11C]CN133 uptake in baboon peripheral organs (time-activity curves)” value in the series with histone deacetylases [2] (heart, spleen, kidney, pancreas, CN133 0.5 mg/kg 10-minute pre-treatment, SAHA infusion 5 mg/kg) is reported as “significant blocking”.

For the molecule `[11CH3]N(Cc1ccc(/C=C/C(=O)NO)cc1)CC12CC3CCC(CC(C3)C1)C2` [[11C]CN133], the fraction unbound at 10 min is 0.945 in series [3] and 0.986 in series [4]. In the series on histone deacetylases [1] (rats, intravenous, 60 minutes scan), the BBB penetration entry was “high BBB penetration”. Besides, in the series with histone deacetylases [1], the “blocking … after pretreatment” value is “dose-dependent blocking”. For the same molecule, the “IC50 / binding towards HDAC isoforms (in words)” value on HDAC1 through HDAC9 is on record as “sub-nanomolar”. In addition, the logD in the series “Log D determination” stood at 2.03. The “VT (Ichese MAI), Baseline” value turned out to be 19.45 ± 7.5 in the series on histone deacetylases [2] (Cerebellum VOI) and 14.65 ± 8.48 with histone deacetylases [2] (Whole Brain VOI). The “VT (Logan Plot), Baseline” value with histone deacetylases [2] (Cerebellum VOI) came to 19.28 ± 3.18; with histone deacetylases [2] (Whole Brain VOI), 14.46 ± 3.83. For the same molecule, the “time of peak radioactivity in the brain after injection” value in the series with histone deacetylases [2] (baboon) is given as “about 1 minute”. For the same molecule, the “tracer uptake in peripheral organs” value with histone deacetylases [2] (baboon heart, kidney, pancreas and spleen) is given as “good uptake”. For the same molecule, in the series on histone deacetylases [2] (baboon, tracer dose or blocking dose), the “changes in vital signs” value was “did not notice any significant changes”.
